Experimental data taken from US20250011869A1, “TLR3 INHIBITORS FOR USE IN THE TREATMENT OF DISEASES ASSOCIATED WITH CARDIOVASCULAR CALCIFICATION” (priority 2021, published 2025).

How the values were obtained:
IFN-β = IFN-β expression in VICs (RT-qPCR); type: cell-based, human; settings: Poly(I:C) 2, 4, 6, 24 and 48 h (FIG. 4B)
Procedure: (§1) Valvular interstitial cells from patients undergoing aortic valve replacement or cardiac transplantation were isolated via collagen digestion as described previously^6. Valves were rinsed in EBSS and subsequently subjected to collagenase digestion (Sigma, St. Louis, MO; 2.5 mg/mL in M199) for 30 minutes at 37° C. Thereafter, tissue samples were vortexed and supernatant containing endothelial cells was removed. Again, collagenase was added to the remaining valve tissue (1 mg/mL) for 3 h at 37° C. For mechanical disintegration of the tissue, vortexing and repeated aspiration via a pipette was performed. The supernatant was transferred into a new tube and subjected to centrifugation (300 g for 8 minutes at 4° C.). Subsequently, cells were resuspended in M199 medium containing 10% fetal calve serum, penicillin, streptomycin, L-Glutamine and amphotericin B (2.5 mg/L).
(§2) All cells were cultivated under standard conditions (37° C., supplied with 5% CO2). Passaging of the cells was performed at 70-90% confluency, and cells were only used until passage 7 as described previously^6. […]
(§3) RT-PCR was performed as described previously^17. […] The result for the relative gene expression was calculated by the 2-DDCt method. Mean Ct values were calculated from double determinations and samples were considered negative if the Ct values exceeded 4017. […]

TLR3 = TLR3 expression in valvular interstitial cells (immunoblot / RT-qPCR); type: cell-based, human; settings: RT-qPCR; Poly(I:C) 2, 4, 6, 24 and 48 h (FIG. 4A)
Procedure: as §1, §2, §3

VICs [1] = test: Calcification assay of VICs in osteogenic medium (Alizarin Red S, alkaline phosphatase); type: cell-based, human; settings: VICs in osteoblastic medium
Procedure: For functional evaluation of osteoblastic activity, VICs were subjected to a calcification assay. Cells were cultured in osteogenic medium including 10 mmol/L beta-glycerophosphate, 10 nmol/L vitamin D3, and 10 nmol/L dexamethasone as described previously^4. The medium was changed every three days. Subsequently, supernatant was analyzed for alkaline phosphatase activity using the commercially available alkaline phosphatase assay kit (Abcam, Cambridge, UK). After careful rinsing with PBS, cells were fixed with 4% paraformaldehyde, washed with distilled water and Alizarin Red S staining solution (Alfa Aesar, Haverhill, MA) was added upon the fixed cells for 20 minutes at room temperature (RT). Imaging of the staining was performed using a Zeiss Axioplan 2 microscope (Zeiss, Oberkochen, Germany). Images were processed using Adobe Photoshop CS5.1 for Mac (Adobe Systems Inc., San Jose, CA, USA) and analyzed with ImageJ software (National Institutes of Health, Bethesda, […]).

TLR3-RUNX2 pathway = test: Immunoblot of human dermal fibroblasts for the TLR3-RUNX2 pathway; type: cell-based; settings: wild type and empty vector control cells; 5 μg/ml, 6 h
Text: (§4) Human dermal fibroblasts WT and Tlr3^−/− were kindly provided by the Jean-Laurent Casanova group and cultivated in DMEM with 4.5 g/L glucose (Lonza, Basel, Switzerland), 10% FCS (Sigma, St. Louis, MO), penicillin, streptomycin and L-Glutamine. Human dermal fibroblasts CTR cells were provided by the Villunger group and cultivated in DMEM with 4.5 g/L glucose (Lonza, Basel, Switzerland), 10% FCS (Sigma, St. Louis, MO), penicillin, streptomycin and L-Glutamine.
(§5) All cells were cultivated under standard conditions (37° C., supplied with 5% CO2). Passaging of the cells was performed at 70-90% confluency, and cells were only used until passage 7 as described previously^6. Polyinosinic: polycytidylic acid (Poly(I:C); Invivogen, San Diego, CA) was used to stimulate cells at a concentration of either 20 μg/mL or 5 μg/ml, depending on the assay. For blockade of TLR3, the commercially available dsRNA/TLR3 inhibitor ((R)-2-(3-Chloro-6-fluorobenzo [b] thiophene-2-carboxamido)-3-phenyl-propanoic acid) was used (Merck, Darmstadt, Germany) at a concentration of 1 μg/ml as described previously^1,7. LY294002 (Invivogen, San Diego, CA), a PI3K inhibitor, was used at a concentration of 10 μM. For blockade of IFNAR1, a specific blocking antibody (Invitrogen, Carlsbad, CA) was used at a concentration of 4 μg/ml. A stable HEK (human embryonic kidney) reporter cell line (TLR3/ISRE LUCPorter; Imgenex, USA) was purchased for luminometer assay experiments. Cells were cultivated according to the manufacturer's protocol in DMEM with 4.5 g/L glucose (Lonza, Switzerland), 10% FCS (Sigma, St. Louis, MO), penicillin/streptomycin, and 4 mM L-glutamine and […] puromycin (Gibco, USA) as selection agent. Reporter experiments were performed as described previously^8. For the protein expression SF21 cells were purchased at ThermoFisher (#11497013) and cultivated in Gibco™ Sf-900™ SFM supplemented with penicillin, streptomycin and L-Glutamine. In vitro stretch was applied using a Flexcell bioreactor (Flexcell International Corporation, Burlington, NC) applying 15% cyclic strain as described previously^9.
Protein from tissue or cell lysates was extracted using a Radioimmunoprecipitation Assay Lysis Puffer (150 mM NaCl, 1% NP-40, 0.5% Sodium Deoxycholate, 0.1% SDS and 50 mM Tris (pH 8,0)). For the extraction of nuclear or cytosolic proteins the NE-PER™ Nuclear and Cytoplasmic Extraction Reagents Kit (ThermoScientific, #78835) was used.
Protein was thereafter separated on SDS-polyacrylamide gels of different percentages and transferred to nitrocellulose membranes as described previously^18. After blocking with either 5% BSA in TBS 0.1% Tween, 5% milk in TBS 0.1% Tween or StartingBlock™ (TBS) Blocking buffer (ThermoScientific, #37542) membranes were incubated with primary antibodies listed in Table 2.

VICs [2] = test: RNA sequencing of VICs vs human osteoblasts; type: cell-based; settings: Poly(I:C) 20 μg/mL, 72 h
Procedure: Total-RNA was isolated from five samples (VICs, cultured in calcification media and treated either 72 h with 20 μg/ml Poly(I:C), untreated controls, as well as human osteoblasts) and submitted to transcriptome analysis for the purpose of gene-expression profiling. For the RNA sequencing analysis in FIG. 5 the 2100 Bioanalyzer and RNA 6000 Nano LabChip kits (Agilent Technologies) was used to check for RNA integrity (all RINs >9). The TruSeq® Stranded mRNA HT technology was used for library preparation according to manufacturer's protocol and Illumina NextSeq® 500 1×75 bp single end sequencing was performed at the IMGM® laboratories (Martinsried, Germany). The RNA sequencing analysis in Figure S3 was performed at Novogene (UK) Co. using the NovaSeq 600 PE150.
All primary sequencing analyses were performed using CLC Genomics Workbench (9.5.3) including sequence QC and mapping to the human reference genome (GRCh38.p7). Differentially expression analyses were performed on raw count data and using an exact test based on negative binomial distribution (edgeR version 3.4.0) 10. P-values were adjusted according to the Benjamini-Hochberg method based on the false discovery rate (FDR). Only genes with at least four-fold change were considered. Over representation analysis for gene ontology and pathways on differentially expressed genes were performed using DAVID (6.8) 11 and ConsensusPathDB^12. Gene set enrichment analysis on log 2-fold change pre-ranked data was performed using GSEA software^13 and gene sets for biological hallmark processes and pathways (MSigDB), calcification signature as derived from respective literature, and signatures of differentially expressed genes for calcific aortic valve stenosis versus control^14 (reanalyzed data from GSE12644 using R package limma^15 including genes with more than two-fold change and FDR <0.05). Heat maps were generated using Genesis version 1.8.116 for log 2-fold change data.

TLR3 and IFN-β = test: RT-PCR of human dermal fibroblasts (wild type, empty vector control, Tlr3−/− CRISPR); type: cell-based; settings: 5 μg/ml, 6 h
Text: as §4, §5
RT-PCR was performed as described previously^17. Total RNA was extracted from homogenized tissue or cell lysates using the Total RNA Miniprep Kit (New England BioLabs, Frankfurt, Germany) according to the manufacturer's instructions. We performed the PCR reaction in a final volume of 12.5 μL containing 2.5 μL of cDNA, 6.25 μL of Master Mix, 1 μL of fluorogenic hybridization probe, 10 μM of primer and 2.75 μL of distilled water. […] The result for the relative gene expression was calculated by the 2-DDCt method. Mean Ct values were calculated from double determinations and samples were considered negative if the Ct values exceeded 4017. […]

alkaline phosphatase (ALP) activity (VICs [1]; supernatant): increased the activity
Substance: Polyinosinic: polycytidylic acid [Poly(I:C)]
IFN-β expression in VICs (IFN-β): increased expression
TLR3 expression in VICs (TLR3): increased expression
calcification / production of calcific nodules (VICs [1]; Poly(I:C) 20 μg/mL or inhibitor 26 μM, Alizarin Red S): enhanced the production of calcific nodules
IFNAR1 level (TLR3-RUNX2 pathway): upregulation of IFNAR1
levels of osteoblastic transcription factor RUNX2 (TLR3-RUNX2 pathway): increased levels
phosphorylation of IRF3 (TLR3-RUNX2 pathway): phosphorylation of IRF3
transcriptome of treated VICs (VICs [2]): induces an osteoblastic transcriptome
genes downregulated in both Poly(I:C)-treated VICs and human osteoblasts compared to untreated VICs (VICs [2]; at least four-fold change): 199 genes
genes upregulated in both Poly(I:C)-treated VICs and human osteoblasts compared to untreated VICs (VICs [2]; at least four-fold change): 118 genes
transcription of TLR3 and IFN-β (TLR3 and IFN-β; Tlr3−/− fibroblasts): no response
transcription of TLR3 and IFN-β (TLR3 and IFN-β; wild type and empty vector control fibroblasts): induced transcription of TLR3 and IFN-β
